According to publication PMC11755562, “Peptide Inhibitor Assay for Allocating Functionally Important Accessible Sites Throughout a Protein Chain: Restriction Endonuclease EcoRI as a Model Protein System” (BioTech, 2024):
“Also recorded” adds a separate entry of the source.

Tests used:
[1] = biological target: T1, EcoRI (Escherichia coli, UniProt P00642); experiment: Peptide inhibitor assay (PIA): EcoRI digestion of pCRII-TOPO-OR23 plasmid, fluorescence intensity of the excised OR23 band on agarose gel; format: biochemical; conditions: for level of inhibitory effect on EcoRI (in words) / inhibitory effect compared with the original peptide (in words) / significance of inhibition of EcoRI activity versus no peptide / relative fluorescence intensity of excised OR23 fragment: 3 h; for level of inhibitory effect on EcoRI (in words): EcoRI:peptide 1:500, relative fluorescence intensity; for inhibitory effect compared with the original peptide (in words): EcoRI:peptide 1:500, randomized peptides by Student's t-test versus each endogenous BP; for significance of inhibition of EcoRI activity versus no peptide: EcoRI:peptide 1:500, Dunnett's test versus no peptide; for relative fluorescence intensity of excised OR23 fragment: relative to no peptide, EcoRI:peptide 1:500 molar ratio, 37 °C, 0.015 mM Mg2+, mean of n = 3; for inhibitory effect, fluorescence intensity versus incubation time (in words): time course until 5 h, EcoRI:peptide 1:500, compared with no peptide
T1 construct: The first M is removed after translation in this protein; purchased New England Biolabs
Description: Peptide synthesis was performed by GenScript Japan (Tokyo, Japan). All peptides were confirmed to be more than 75% pure via high-performance liquid chromatography (HPLC) and to have theoretical molecular weights via mass spectrometry (MS). The peptides were dissolved in DMSO (dimethyl sulfoxide) and were prepared at 5.59 × 10^−9 mol/μL (5.59 mM). When 1.0 μL of this peptide mixture was mixed in a tube for the inhibition of EcoRI catalytic activity, the molar ratio of EcoRI to peptide was 1:500. This concentration in molar equivalence was used throughout this study unless otherwise noted.
Purified and concentrated EcoRI (20,000 U/mL, approximately 338 μg/mL, 1.12 × 10^−[…]) was obtained from New England Biolabs (Ipswich, MA, USA). To quantify and visualize the inhibitory effects of the peptides, the enzymatic reaction conditions were set so that at least three hours of incubation were required to completely digest the substrate plasmid DNA with EcoRI. To do so, we used a low Mg^2+ concentration (0.015 mM) in the reaction mixture in contrast to the optimum concentration of Mg^2+ for EcoRI (10 mM).
(§1) All master solutions and samples were prepared on ice. A single reaction tube contained the following common ingredients: autoclaved DNase-free RNase-free deionized H2O (12.5 μL) (Nippon Gene), 10× NE Buffer Mg^2+-free (2.0 μL), pCRII-TOPO-OR23 plasmid DNA (2.0 μL of 40 ng/μL solution), MgCl2 (1.5 μL of 0.20 mM solution), and EcoRI (1.0 μL). A master solution containing these ingredients without DMSO or a peptide was first prepared for the number of sample tubes. The master solution was aliquoted into 1.5 mL spin tubes (19.0 μL per tube). Then, 1.0 μL of DMSO or a peptide sample was added, and the mixture was incubated at 37 °C. A negative control with DMSO but without a peptide (“no peptide” control) was run in every assay. When the digestion efficiency was compared, another negative control with autoclaved DNase-free RNase-free H2O without EcoRI was prepared. After the reaction, the samples were quickly cooled on ice for ten minutes and then stored at −80 °C until agarose gel electrophoresis. The above protocol was conducted for all peptides (including BP19.5, BP19.5N, and BP19.5C) used in the present study unless otherwise noted.
To quantify EcoRI activity after incubation of a reaction mixture, digested pCRII-TOPO-OR23 plasmid DNA was examined via agarose gel electrophoresis. We first prepared a 25 mL solution of 1.0% agarose (Nippon Gene) in TAE (Tris-acetate-EDTA) buffer (Promega, Madison, WI, USA) to produce an agarose gel. An ethidium bromide solution (0.5 μL of 10 mg/mL) (Promega) was added before gelation. After incubation with EcoRI, the fluorescence intensity of the band of the excised OR23 fragment was measured via an ImageQuant LAS4000 (GE Healthcare Japan, Tokyo, Japan) with the following conditions: “Exposure Type”: Precision; “Exposure Time”: Manual 1/8 sec; “Sensitivity/Resolution”: Standard; and “Fluorescent Method”: Epi illumination; EtBr; UV (Trans UV) light; 6-5DF50 Filter; and F2.8 Iris.
For statistical analyses, Student’s t-test (unpaired and bi-sided), Dunnett’s test, and Pearson correlation analysis were performed via Microsoft Excel (Office 365) and JSTAT (Yokohama, Japan). The Dunnett’s test was performed for each experimental group that was examined simultaneously in the laboratory, in comparison to the “no peptide” control group that was examined simultaneously. The repeated measure mode of the Dunnett’s test was used on the assumption that there was no interaction between samples.

[2] = biological target: T1, EcoRI; experiment: Nonspecific nuclease activity of EcoRI reaction mixture with peptide (plasmid DNA degradation); format: biochemical; conditions: EcoRI plus peptide 1:500, 3 h; n = 3
Description: A recombinant plasmid, pCRII-TOPO (Invitrogen, Waltham, MA, USA), containing a PCR fragment of the full-length cDNA (978 bp) of the mouse odorant receptor OR23 [82, 83, 84, 85, 86] at the EcoRI cloning site (GAATTC) was used as a DNA substrate for EcoRI. […] This pCRII-TOPO-OR23 plasmid was prepared from TOP10F’ Escherichia coli (Invitrogen) using ATP Plasmid Mini Kit (ATP Biotech, Taipei, ROC). The plasmid solution was prepared at 40 ng/μL by adding autoclaved DNase-free RNase-free deionized H2O (Nippon Gene, Tokyo, Japan). The DNA concentrations were measured with a Qubit fluorometer (Invitrogen).
as §1
This reaction mixture containing EcoRI and BP19.5 appeared to degrade the plasmid DNA entirely. […] The DNA concentration at 3 h was 3.297 ± 0.006 ng/μL without any peptide in the reaction mixture and 0.332 ± 0.003 ng/μL with BP19.5, indicating a statistically significant difference (n = 3; unpaired bi-sided Student’s t-test; p = 1.6 × 10^−11). […] Therefore, BP19.5 and its derivatives are likely to cause EcoRI to become a nonspecific nuclease. In other words, BP19.5 was likely a specificity/activity modifier of EcoRI instead of an inhibitor.

T1 sequence (P00642 2-277): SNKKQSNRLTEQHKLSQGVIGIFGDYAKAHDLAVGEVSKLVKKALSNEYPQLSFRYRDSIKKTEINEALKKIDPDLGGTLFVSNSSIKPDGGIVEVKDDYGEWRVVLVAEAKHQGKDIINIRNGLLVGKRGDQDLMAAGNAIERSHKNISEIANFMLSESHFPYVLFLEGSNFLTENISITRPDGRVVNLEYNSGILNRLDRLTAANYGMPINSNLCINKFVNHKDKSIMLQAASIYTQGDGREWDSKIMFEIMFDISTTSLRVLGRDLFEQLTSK

## AAGNAI [BP13M]
[1]; n = 3
  level of inhibitory effect on EcoRI (in words): noninhibitory

## AANYGMPINSNL [BP19]
[1]; n = 3
  level of inhibitory effect on EcoRI (in words): did not show high inhibition
[2]
  plasmid DNA degradation / nonspecific nuclease induction (agarose gel electrophoresis, in words): did not have such an induction ability

## AGRKQEVHAVWVEL [BP10R2]
[1]; n = 3
  inhibitory effect compared with the original peptide (in words): as inhibitory as the original peptides

## AVGEVSKLVKKALS [BP4]
[1]; n = 3
  significance of inhibition of EcoRI activity versus no peptide: significantly inhibitory

## DGLTPFSDVLGI [BP7R2]
[1]; n = 3
  inhibitory effect compared with the original peptide (in words): significantly less inhibitory

## DLMAAGNAIERS [BP13]
[1]; n = 3
  level of inhibitory effect on EcoRI (in words): not very inhibitory

## EAKHQGKDIIN [BP10.5]
[1]; n = 3
  level of inhibitory effect on EcoRI (in words): not very inhibitory

## EALDIAMGRNSA [BP13R1]
[1]; n = 3
  inhibitory effect compared with the original peptide (in words): significantly more inhibitory

## EGSNFLTENISI [BP16]
[1]; n = 3
  level of inhibitory effect on EcoRI (in words): highly inhibitory; also recorded: most effective
[1]
  relative fluorescence intensity of excised OR23 fragment: less than 0.3

## EIANFM [BP14C]
[1]; n = 3
  inhibitory effect compared with the original peptide (in words): as inhibitory as the original BP14

## EQHKLSQGVIGI [BP2]
[1]; n = 3
  significance of inhibition of EcoRI activity versus no peptide: significantly inhibitory
  level of inhibitory effect on EcoRI (in words): highly inhibitory; also recorded: most effective
[1]
  relative fluorescence intensity of excised OR23 fragment: less than 0.3

## EWRVVL [BP10N]
[1]; n = 3
  level of inhibitory effect on EcoRI (in words): noninhibitory

## EWRVVLVAEAKHQG [BP10]
[1]; n = 3
  level of inhibitory effect on EcoRI (in words): not very inhibitory

## FRYRDSIKKTEI [BP5.5]
[1]; n = 3
  level of inhibitory effect on EcoRI (in words): least inhibitory; also recorded: noninhibitory

## FVSNSSIKPDGG [BP8]
[1]; n = 3
  level of inhibitory effect on EcoRI (in words): noninhibitory
  inhibitory effect, fluorescence intensity versus incubation time (in words): relatively low inhibitory effects

## GIVEVK [BP9M]
[1]; n = 3
  inhibitory effect compared with the original peptide (in words): more inhibitory than the original

## GREWDSKIMFEIMF [BP22]
[1]; n = 3
  significance of inhibition of EcoRI activity versus no peptide: significantly inhibited EcoRI activity
  level of inhibitory effect on EcoRI (in words): especially notable
  inhibitory effect, fluorescence intensity versus incubation time (in words): relatively high inhibitory effects
[1]; ×5 to ×500 molar equivalence to EcoRI, fixed time point 3 h, n = 3
  concentration dependence of the inhibitory effect: concentration dependent

## IDPDLG [BP7N]
[1]; n = 3
  level of inhibitory effect on EcoRI (in words): noninhibitory

## IKKTEI [BP6N]
[1]; n = 3
  inhibitory effect compared with the original peptide (in words): as inhibitory as the original BP6

## IKKTEINEALKKID [BP6]
[1]; n = 3
  significance of inhibition of EcoRI activity versus no peptide: significantly inhibited EcoRI activity
  level of inhibitory effect on EcoRI (in words): especially notable

## KPDGGIVEVKDDYG [BP9]
[1]; n = 3
  level of inhibitory effect on EcoRI (in words): not very inhibitory

## KRGDQDLMAAG [BP12.5]
[1]; n = 3
  level of inhibitory effect on EcoRI (in words): not very inhibitory

## LAMRGASIADEN [BP13R2]
[1]; n = 3
  inhibitory effect compared with the original peptide (in words): significantly less inhibitory

## LDRLTAANYGM [BP18.5]
[1]; n = 3
  level of inhibitory effect on EcoRI (in words): noninhibitory
